One experiment has as its target HDAC4 (Homo sapiens, UniProt P56524). Put plainly: Biochemical assay for HDAC inhibition, HDAC4. As to conditions: read-out: IC50 HDAC4.
Experiment [1] has as its system hyperacetylation of tubulin, H3K9 and H3K27. Put plainly: Western blot of tubulin and histone H3 hyperacetylation in B16-F10 cells. The class given is cell-based, mouse. The settings on record: SAHA 100 nM. The source says: (§1) B16-F10 cells are responsive to 1,25D analogues[45] and HDACi[46],[47] and are therefore widely used in preclinical studies of melanoma solid tumor growth and metastases.[48] Although curable when treated early, melanoma is fatal when invasive. The American Cancer Society projected 97,610 new invasive melanoma cases in the US in 2023 and 7990 deaths. Current treatment options include chemotherapy, surgery, immunotherapy, or single agents targeting mutated genes such as B-RAF or C-KIT.[49]
(§2) After 6 h treatments, 4T1, 4T07, or B16-F10 cells were solubilized in lysis buffer (20 mM Tris, pH 8, 150 mM NaCl, 1% Triton X-100, 3.5 mM SDS, and 13 mM deoxycholic acid), and proteins were separated on a 4–15% Tris/glycine/SDS gel (Bio-Rad). Then, the proteins were transferred to a nitrocellulose membrane, followed by blocking in 5% skim milk in Tris-buffered saline (TBS, 1×) solution. […] Finally, signals were detected using Clarity ECL substrates (Bio-Rad) and a ChemiDoc Imaging System. Changes in protein levels were quantified relative to control using Image Lab software (version 6.0.1) after normalization to GAPDH. […]
Figure S2. […] Quantification of the analyses of hyperacetylation in B16-F10 cells of tubulin, H3K9 and H3K27. […]

Experiment [2] has the same test system. In words: Western blot of tubulin and histone H3 hyperacetylation in 4T1 cells. The class given is cell-based, mouse. As to conditions: hybrids 10 μM, 6 h. Here is the method: (§3) The potential for compounds as HDACi’s can be rapidly tested in cells in culture by monitoring the hyperacetylation of histone H3 and tubulin. H3 acetylation is controlled by multiple class I enzymes, and the class IIb enzyme HDAC6 regulates tubulin acetylation.[36]−[39] […] (Figure 4A).
(§4) Figure 4 Evidence for HDAC inhibition in 4T1 and 4TO7 TNBC cells. Western blots and quantification of triplicate biological replicates analyzing the effects of 1,25D (100 nM), SAHA (100 nM), and hybrids (10 μM) on hyperacetylation of tubulin (A,D), H3K9 (B,E), and H3K27 (C,F) in 4T1 (A–C) and 4TO7 cells (D–F).
After 6 h treatments, 4T1, 4T07, or B16-F10 cells were solubilized in lysis buffer (20 mM Tris, pH 8, 150 mM NaCl, 1% Triton X-100, 3.5 mM SDS, and 13 mM deoxycholic acid), and proteins were separated on a 4–15% Tris/glycine/SDS gel (Bio-Rad). Then, the proteins were transferred to a nitrocellulose membrane, followed by blocking in 5% skim milk in Tris-buffered saline (TBS, 1×) solution. After blocking, the membranes were incubated overnight at 4 °C with the primary antibodies against acetylated tubulin (Sigma-Aldrich—#T7451), tubulin (Sigma-Aldrich—#T9026), acetyl-histone H3(Lys9) (Merck Millipore—#07-352), acetyl-histone H3 (Lys27) (Abcam—#ab4729), total histone H3 (Cell Signaling Technology (CST)—#3638), and GAPDH (Abcam—#ab8245). Then, the membranes were incubated with antimouse (CST—#7076) or antirabbit (CST—#7074) IgG HRP-linked secondary antibodies at recommended concentrations. Finally, signals were detected using Clarity ECL substrates (Bio-Rad) and a ChemiDoc Imaging System. Changes in protein levels were quantified relative to control using Image Lab software (version 6.0.1) after normalization to GAPDH. Western blot experiments were carried out three times.
(In general: A western blot detects proteins with antibodies after separation by electrophoresis.)

In the next experiment the test system is B16-F10 tumors. Put plainly: B16-F10 melanoma model in vivo. Details: species or system mouse. As to conditions: 2 doses of 5 mg/kg 24 h apart; also VDR gene; duplicate tumors from two animals. Here is the method: We were then interested in comparing the efficacy of ZG compounds and other hybrids in tumor models in vivo. We focused initially on the B16-F10 melanoma which is syngeneic with C57BL/6 mice. The efficacy of ZG-126 in vivo in this model was tested in two experiments. […] In a second experiment, we compared the antitumor efficacy of hybrids at ∼0.5 MTD doses. […] All treatments were well tolerated, and body weights were unaffected (Figure 6C).
Finally, mice were sacrificed, and lungs of 4T1-bearing mice were removed to evaluate the efficiency of treatments on lung metastases.

The target in another experiment is HDAC9 (Homo sapiens, UniProt Q9UKV0). In words: Biochemical assay for HDAC inhibition, HDAC9. The settings on record: concentrations as high as 100 μM.
Chain of HDAC9 (Q9UKV0 whole entry): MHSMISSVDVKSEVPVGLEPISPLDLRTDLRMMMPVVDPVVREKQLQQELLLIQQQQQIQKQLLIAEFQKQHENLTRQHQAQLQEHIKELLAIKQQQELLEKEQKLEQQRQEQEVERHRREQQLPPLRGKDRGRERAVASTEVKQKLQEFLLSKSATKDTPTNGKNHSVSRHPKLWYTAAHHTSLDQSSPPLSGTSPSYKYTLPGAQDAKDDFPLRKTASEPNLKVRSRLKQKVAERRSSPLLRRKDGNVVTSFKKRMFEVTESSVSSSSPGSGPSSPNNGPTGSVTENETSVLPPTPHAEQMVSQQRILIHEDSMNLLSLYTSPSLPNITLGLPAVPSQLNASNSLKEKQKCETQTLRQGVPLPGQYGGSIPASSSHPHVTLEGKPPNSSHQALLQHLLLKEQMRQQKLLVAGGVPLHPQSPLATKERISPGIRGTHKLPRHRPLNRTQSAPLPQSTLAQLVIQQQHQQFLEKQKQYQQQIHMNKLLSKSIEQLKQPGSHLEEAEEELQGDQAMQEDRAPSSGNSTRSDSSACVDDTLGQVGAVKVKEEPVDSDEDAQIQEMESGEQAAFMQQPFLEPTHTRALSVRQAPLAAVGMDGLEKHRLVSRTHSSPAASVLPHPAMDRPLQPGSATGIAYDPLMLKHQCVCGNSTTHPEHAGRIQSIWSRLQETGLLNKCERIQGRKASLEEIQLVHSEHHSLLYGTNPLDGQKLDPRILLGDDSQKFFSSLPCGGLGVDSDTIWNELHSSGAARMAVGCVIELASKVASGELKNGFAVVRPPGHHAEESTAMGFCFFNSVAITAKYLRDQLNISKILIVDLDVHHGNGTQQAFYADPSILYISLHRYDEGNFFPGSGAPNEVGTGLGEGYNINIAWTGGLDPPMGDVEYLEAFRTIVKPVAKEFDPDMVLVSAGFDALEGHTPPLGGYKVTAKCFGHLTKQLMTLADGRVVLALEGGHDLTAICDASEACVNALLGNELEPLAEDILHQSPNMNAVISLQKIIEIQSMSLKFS
Another experiment has as its target T1, VDR (Mus musculus, UniProt P48281).
T1 sequence (P48281 1-422): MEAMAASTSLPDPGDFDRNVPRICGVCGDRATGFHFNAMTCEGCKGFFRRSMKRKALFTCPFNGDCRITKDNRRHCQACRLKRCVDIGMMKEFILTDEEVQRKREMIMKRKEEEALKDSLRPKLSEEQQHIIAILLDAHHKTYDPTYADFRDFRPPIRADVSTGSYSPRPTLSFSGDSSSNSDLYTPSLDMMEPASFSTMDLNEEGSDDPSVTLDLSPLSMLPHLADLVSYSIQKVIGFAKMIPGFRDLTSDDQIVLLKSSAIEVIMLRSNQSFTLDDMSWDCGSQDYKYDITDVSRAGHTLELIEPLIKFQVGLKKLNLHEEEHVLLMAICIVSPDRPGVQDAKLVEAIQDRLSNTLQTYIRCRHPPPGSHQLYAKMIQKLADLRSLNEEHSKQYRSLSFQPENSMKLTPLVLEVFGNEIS
Put plainly: Cyp24a1 induction in B16-F10 melanoma cells. Type of experiment: cell-based. Also noted: endogenous in cells; host or cells: mouse B16-F10 melanoma cells. As to conditions: Figure S2A.
From the text: as §1
RNA extraction was performed with the FavorPrep tissue total RNA mini kit (FAVORGEN Biotech Corporation FATRK 001) as per manufacturer’s instructions. cDNA was obtained from 1 μg of RNA using 5× All-in-One RT MasterMix (Applied Biological Materials (abm) Inc. G485) and diluted 5 times. qPCR was performed with BrightGreen 2× q-PCR MasterMix (abm MasterMix-LR-XL) on a Roche LightCycler 96 system. Expression of targeted genes was normalized to 18 s.
Figure S2. A. Analysis of Cyp24a1 induction by ZG126, DK406, AM193 along with 1,25D and SAHA as controls in B16-F10 cells. B. Western blots analyzing the effects of 1,25D, SAHA and hybrids on hyperacetylation of tubulin, H3K9 and H3K27 in B16-F10 cells. C. Quantification of the analyses of hyperacetylation in B16-F10 cells of tubulin, H3K9 and H3K27. D. Assessment of cytotoxicity in B16-F10 […]
(1 picture or pasted object on this page, not shown here)

The test system of experiment [3] is hyperacetylation of tubulin, H3K9 and H3K27. Put plainly: Western blot of tubulin and histone H3 hyperacetylation in 4TO7 cells. As to conditions: hybrids 10 μM, SAHA 100 nM, 6 h. Type of experiment: cell-based, mouse. The method, then: as §3, §4, §2

Read-outs that look alike come from different tables or passages of the source.

Chain of HDAC4 (P56524 whole entry): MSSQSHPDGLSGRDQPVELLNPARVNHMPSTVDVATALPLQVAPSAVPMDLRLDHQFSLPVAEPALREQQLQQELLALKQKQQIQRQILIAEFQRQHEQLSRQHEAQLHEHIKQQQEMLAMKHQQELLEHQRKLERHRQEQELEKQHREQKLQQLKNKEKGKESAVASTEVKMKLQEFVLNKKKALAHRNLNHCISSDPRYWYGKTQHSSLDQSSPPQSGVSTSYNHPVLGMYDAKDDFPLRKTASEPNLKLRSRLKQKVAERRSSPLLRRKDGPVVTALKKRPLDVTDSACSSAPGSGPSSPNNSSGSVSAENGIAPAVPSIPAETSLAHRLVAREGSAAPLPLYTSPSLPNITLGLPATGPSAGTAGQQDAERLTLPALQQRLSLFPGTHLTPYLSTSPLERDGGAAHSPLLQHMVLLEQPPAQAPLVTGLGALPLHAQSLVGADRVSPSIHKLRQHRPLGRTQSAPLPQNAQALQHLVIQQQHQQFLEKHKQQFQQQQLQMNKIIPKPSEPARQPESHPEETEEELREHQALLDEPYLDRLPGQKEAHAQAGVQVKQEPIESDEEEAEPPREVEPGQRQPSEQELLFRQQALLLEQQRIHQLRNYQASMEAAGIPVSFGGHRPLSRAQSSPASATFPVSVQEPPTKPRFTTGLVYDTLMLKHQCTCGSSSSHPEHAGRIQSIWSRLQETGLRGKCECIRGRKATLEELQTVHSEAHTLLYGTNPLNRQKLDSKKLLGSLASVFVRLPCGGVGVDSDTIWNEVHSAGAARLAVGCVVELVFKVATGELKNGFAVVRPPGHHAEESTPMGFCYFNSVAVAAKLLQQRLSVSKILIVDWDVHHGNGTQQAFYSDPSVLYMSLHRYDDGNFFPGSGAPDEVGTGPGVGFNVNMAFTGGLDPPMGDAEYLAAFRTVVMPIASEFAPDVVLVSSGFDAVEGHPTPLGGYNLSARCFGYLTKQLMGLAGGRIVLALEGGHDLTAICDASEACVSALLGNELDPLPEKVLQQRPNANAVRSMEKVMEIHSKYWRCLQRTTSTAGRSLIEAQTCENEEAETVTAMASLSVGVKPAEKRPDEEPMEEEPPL

`CCC(CC)(c1ccc(C(=O)NCCCCC(=O)NO)cc1)c1ccc(OCC(O)C(C)(C)C)c(C)n1` (stereo not drawn) [ZG-126, 4-(3-(5-(2-Hydroxy-3,3-dimethylbutoxy)-6-methylpyridin-2-yl)pentan-3-yl)-N-(5-(hydroxyamino)-5-oxopentyl)benzamide]: the IC50 at HDAC4 came out at 68 µM; at HDAC4 (Table 1, purified enzyme, unit inferred), 67.6 µM. In addition, in experiment [1], the “tubulin acetylation and histone hyperacetylation” value is recorded as “comparable to or greater than that induced by a saturating concentration of SAHA”. The “histone H3 hyperacetylation at lysine 9 and 27 (H3K9 and H3K27)” value in experiment [2] is given as “comparable or superior to AM-193”. Besides, in experiment [2] (SAHA 100 nM), the tubulin acetylation result is “by far the most efficacious”. Further, in the experiment on B16-F10 tumors, the “Cyp24a1 induction in B16-F10 tumors” value is on record as “robust induction of Cyp24a1”. The “inhibition of HDAC9” value at HDAC9 is recorded as “no or very limited inhibition”. In addition, the Cyp24a1 induction entry on VDR is recorded as “mimicked”. Further, the “tubulin and histone hyperacetylation” value in experiment [3] was “induced higher levels of tubulin and histone hyperacetylation than SAHA”.

By IC50 is commonly meant the concentration at which inhibition is half-maximal.
